In publication PMC6848746 (Psychopharmacology, 2019):
Where two headings read alike, the source gives them in different places.

Legend:
5-HT1E = 5-HT1E (Homo sapiens, UniProt P28566); experiment: Radioligand binding
5-HT5A = 5-HT5A (Homo sapiens, UniProt P47898); experiment: Radioligand binding
SERT = SERT (Rattus norvegicus, UniProt P31652); experiment: SERT-mediated release of [3H]5-HT from rat brain synaptosomes; format: biochemical; conditions: for Emax: read-out: SERT-mediated release Emax
Sequence of SERT (P31652 whole entry): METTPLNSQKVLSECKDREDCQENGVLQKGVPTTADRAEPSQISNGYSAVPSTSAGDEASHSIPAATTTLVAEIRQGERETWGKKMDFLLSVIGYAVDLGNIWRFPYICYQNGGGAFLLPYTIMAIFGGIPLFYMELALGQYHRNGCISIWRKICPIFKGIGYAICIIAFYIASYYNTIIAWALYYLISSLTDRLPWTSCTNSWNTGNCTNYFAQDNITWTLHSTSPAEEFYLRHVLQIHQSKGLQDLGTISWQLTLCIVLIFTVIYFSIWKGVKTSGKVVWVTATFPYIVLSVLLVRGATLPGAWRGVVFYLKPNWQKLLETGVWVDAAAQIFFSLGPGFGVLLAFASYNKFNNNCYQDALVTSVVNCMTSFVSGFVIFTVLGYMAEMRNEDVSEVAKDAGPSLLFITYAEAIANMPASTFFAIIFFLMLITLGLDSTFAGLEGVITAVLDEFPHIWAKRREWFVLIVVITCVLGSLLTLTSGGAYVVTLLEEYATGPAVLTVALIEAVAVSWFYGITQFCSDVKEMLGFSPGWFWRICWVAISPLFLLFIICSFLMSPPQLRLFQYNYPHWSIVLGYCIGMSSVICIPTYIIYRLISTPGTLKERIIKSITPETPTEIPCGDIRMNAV

β3 = β3 (Homo sapiens, UniProt P13945); experiment: Radioligand binding
Sequence of β3 (P13945 whole entry): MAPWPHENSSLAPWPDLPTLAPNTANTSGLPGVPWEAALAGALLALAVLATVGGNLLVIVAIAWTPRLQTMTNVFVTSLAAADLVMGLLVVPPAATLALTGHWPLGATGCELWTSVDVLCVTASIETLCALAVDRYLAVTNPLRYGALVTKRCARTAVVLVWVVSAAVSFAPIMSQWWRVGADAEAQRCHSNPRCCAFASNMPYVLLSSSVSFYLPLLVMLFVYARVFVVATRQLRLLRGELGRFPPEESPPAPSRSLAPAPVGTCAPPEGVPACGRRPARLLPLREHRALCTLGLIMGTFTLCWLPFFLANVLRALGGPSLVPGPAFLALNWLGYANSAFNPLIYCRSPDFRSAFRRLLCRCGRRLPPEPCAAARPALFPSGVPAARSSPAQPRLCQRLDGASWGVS

D5 = D5 (Homo sapiens, UniProt P21918); experiment: Radioligand binding
Sequence of D5 (P21918 whole entry): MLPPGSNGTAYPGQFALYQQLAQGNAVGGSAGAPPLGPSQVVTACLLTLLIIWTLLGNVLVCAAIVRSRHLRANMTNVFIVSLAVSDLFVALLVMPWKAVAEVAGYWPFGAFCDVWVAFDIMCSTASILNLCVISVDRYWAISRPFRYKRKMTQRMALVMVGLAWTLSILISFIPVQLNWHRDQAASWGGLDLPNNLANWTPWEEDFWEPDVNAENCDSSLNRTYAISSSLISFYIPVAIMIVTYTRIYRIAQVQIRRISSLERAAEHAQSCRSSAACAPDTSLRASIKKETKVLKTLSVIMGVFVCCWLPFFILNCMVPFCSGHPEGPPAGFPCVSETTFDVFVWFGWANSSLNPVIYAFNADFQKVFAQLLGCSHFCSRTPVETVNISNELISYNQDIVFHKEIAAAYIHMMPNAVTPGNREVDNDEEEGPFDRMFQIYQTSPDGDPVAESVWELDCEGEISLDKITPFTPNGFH

NET [1] = target: NET (Rattus norvegicus, UniProt Q63380); experiment: NET-mediated release of [3H]MPP+ from rat brain synaptosomes; format: biochemical; conditions: read-out: NET-mediated release Emax
Sequence of NET (Rattus norvegicus, UniProt Q63380) (Q63380 1-617): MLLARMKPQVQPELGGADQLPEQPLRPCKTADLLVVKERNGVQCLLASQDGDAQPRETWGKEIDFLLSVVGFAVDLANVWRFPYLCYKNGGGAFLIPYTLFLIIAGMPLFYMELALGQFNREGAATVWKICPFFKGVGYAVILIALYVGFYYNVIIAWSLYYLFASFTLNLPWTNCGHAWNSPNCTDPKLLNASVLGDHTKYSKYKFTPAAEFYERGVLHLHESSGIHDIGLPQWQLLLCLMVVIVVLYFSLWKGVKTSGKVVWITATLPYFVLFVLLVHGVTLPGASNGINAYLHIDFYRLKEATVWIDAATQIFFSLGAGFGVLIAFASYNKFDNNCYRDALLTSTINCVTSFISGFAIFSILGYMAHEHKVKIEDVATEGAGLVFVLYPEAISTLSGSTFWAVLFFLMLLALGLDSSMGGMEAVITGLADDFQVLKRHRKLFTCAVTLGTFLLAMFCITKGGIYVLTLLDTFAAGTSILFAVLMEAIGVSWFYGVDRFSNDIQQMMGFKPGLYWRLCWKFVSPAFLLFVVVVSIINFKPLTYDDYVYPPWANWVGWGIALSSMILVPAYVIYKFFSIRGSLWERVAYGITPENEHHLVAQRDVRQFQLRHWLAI

α2B = target: T1, α2B (Homo sapiens, UniProt P18089); experiment: Radioligand binding; conditions: for fold lower affinity for α2B compared to 2-AI: binding, [3H]rauwolscine
T1 sequence (P18089 1-450): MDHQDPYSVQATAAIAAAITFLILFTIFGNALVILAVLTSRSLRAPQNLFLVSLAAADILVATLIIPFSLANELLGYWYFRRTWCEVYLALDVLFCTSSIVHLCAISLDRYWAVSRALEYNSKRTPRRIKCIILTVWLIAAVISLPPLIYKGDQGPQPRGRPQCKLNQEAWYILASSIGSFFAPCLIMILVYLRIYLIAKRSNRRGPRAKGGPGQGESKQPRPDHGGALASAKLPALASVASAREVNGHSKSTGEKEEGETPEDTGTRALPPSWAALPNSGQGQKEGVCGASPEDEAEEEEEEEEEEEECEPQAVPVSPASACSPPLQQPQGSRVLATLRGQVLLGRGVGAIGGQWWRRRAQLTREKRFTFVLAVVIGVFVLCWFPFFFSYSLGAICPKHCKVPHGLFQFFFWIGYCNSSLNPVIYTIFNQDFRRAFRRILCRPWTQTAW

D3 = D3 (Homo sapiens, UniProt P35462); experiment: Radioligand binding
Sequence of D3 (P35462 whole entry): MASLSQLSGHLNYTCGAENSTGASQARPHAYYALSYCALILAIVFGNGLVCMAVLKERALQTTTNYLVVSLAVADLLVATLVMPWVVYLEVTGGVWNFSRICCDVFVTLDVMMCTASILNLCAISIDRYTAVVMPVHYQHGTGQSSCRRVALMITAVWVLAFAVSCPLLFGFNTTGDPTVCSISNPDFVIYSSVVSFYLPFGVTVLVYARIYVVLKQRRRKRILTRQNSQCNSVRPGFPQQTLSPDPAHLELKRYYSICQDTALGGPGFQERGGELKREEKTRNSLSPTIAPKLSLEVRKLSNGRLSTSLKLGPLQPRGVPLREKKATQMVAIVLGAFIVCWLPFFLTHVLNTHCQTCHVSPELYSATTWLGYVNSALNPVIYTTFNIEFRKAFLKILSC

α1B = target: T2, α1B (Homo sapiens, UniProt P35368); experiment: Radioligand binding
T2 sequence (P35368 1-520): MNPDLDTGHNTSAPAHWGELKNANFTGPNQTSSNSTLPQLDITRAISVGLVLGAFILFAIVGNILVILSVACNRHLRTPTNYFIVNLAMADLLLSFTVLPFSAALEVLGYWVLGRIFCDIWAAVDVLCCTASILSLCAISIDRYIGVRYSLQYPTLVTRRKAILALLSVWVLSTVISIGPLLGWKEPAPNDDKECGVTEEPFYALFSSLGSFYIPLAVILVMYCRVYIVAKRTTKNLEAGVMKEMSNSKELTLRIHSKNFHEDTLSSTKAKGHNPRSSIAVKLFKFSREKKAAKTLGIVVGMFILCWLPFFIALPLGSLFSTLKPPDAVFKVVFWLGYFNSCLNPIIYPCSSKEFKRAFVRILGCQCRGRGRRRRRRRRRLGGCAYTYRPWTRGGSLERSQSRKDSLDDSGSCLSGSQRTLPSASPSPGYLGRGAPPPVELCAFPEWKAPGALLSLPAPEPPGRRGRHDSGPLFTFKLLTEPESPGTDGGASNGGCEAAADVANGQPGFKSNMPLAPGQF

5-HT1D = 5-HT1D (Homo sapiens, UniProt P28221); experiment: Radioligand binding
Sequence of 5-HT1D (P28221 whole entry): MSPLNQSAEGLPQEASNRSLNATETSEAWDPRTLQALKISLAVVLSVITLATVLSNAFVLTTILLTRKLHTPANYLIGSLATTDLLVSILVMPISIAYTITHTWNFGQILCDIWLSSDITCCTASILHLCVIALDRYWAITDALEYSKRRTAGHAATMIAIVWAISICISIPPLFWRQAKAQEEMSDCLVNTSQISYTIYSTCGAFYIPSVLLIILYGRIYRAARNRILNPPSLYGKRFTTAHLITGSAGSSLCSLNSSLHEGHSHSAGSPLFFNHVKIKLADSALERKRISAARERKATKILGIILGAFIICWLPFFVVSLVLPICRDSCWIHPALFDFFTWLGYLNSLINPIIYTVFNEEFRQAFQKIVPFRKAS

5-HT2A = 5-HT2A (Homo sapiens, UniProt P28223); experiment: Radioligand binding
NET [2] = target: NET (Homo sapiens, UniProt P23975); experiment: Radioligand binding
Sequence of NET (Homo sapiens, UniProt P23975) (P23975 whole entry): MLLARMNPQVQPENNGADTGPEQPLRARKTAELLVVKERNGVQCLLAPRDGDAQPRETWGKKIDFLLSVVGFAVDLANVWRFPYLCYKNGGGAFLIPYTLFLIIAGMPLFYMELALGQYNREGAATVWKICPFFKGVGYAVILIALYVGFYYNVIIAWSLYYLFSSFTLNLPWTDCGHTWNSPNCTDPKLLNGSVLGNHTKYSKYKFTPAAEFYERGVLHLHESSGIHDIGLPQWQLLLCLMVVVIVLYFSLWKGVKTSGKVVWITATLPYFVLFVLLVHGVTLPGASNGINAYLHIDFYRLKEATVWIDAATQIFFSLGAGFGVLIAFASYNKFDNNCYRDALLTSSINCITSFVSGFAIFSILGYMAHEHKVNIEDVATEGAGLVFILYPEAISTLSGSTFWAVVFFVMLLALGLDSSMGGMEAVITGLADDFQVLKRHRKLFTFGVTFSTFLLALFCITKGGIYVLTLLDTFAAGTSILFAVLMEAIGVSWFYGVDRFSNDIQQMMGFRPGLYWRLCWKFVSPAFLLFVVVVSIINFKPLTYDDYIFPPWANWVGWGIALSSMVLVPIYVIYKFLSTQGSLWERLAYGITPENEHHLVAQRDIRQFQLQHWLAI

D4 = target: T3, D4 (Homo sapiens, UniProt P21917); experiment: Radioligand binding
T3 sequence (P21917 1-419): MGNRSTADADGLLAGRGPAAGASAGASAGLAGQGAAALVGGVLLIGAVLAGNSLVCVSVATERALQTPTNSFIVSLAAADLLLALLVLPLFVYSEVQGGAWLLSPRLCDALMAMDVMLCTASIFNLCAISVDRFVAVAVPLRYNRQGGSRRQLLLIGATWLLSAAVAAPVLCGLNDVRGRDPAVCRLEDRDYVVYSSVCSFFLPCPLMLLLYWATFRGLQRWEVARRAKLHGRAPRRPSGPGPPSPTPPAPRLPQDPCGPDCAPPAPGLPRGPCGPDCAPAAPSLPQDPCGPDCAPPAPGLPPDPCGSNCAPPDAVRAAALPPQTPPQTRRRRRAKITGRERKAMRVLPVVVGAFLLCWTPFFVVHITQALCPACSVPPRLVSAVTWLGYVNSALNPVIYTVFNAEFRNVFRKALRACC

5-HT1A = target: T4, 5-HT1A (Homo sapiens, UniProt P08908); experiment: Radioligand binding
T4 sequence (P08908 1-422): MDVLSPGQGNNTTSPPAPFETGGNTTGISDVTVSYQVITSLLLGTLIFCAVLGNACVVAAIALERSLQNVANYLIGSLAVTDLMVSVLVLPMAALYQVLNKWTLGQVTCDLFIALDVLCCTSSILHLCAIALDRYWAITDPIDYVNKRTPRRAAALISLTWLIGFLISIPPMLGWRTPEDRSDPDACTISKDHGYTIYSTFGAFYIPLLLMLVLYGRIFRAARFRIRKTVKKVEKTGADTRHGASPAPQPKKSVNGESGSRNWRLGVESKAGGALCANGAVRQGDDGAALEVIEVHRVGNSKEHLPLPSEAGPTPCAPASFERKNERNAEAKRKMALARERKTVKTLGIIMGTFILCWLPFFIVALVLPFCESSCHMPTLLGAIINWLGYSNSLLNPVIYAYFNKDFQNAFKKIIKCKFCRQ

DAT = DAT (Rattus norvegicus, UniProt P23977); experiment: DAT-mediated release of [3H]MPP+ from rat brain synaptosomes; format: biochemical; conditions: for DAT/NET ratio: (DAT EC50)^-1 ÷ (NET EC50)^-1; for DAT/NET ratio / DAT/SERT ratio: higher value = greater DAT selectivity; for DAT/SERT ratio: (DAT EC50)^-1 ÷ (SERT EC50)^-1; for Emax: read-out: DAT-mediated release Emax; for fold lower release potency at DAT: relative to SERT (MDAI: relative to SERT and NET), synaptosomal release
Sequence of DAT (P23977 whole entry): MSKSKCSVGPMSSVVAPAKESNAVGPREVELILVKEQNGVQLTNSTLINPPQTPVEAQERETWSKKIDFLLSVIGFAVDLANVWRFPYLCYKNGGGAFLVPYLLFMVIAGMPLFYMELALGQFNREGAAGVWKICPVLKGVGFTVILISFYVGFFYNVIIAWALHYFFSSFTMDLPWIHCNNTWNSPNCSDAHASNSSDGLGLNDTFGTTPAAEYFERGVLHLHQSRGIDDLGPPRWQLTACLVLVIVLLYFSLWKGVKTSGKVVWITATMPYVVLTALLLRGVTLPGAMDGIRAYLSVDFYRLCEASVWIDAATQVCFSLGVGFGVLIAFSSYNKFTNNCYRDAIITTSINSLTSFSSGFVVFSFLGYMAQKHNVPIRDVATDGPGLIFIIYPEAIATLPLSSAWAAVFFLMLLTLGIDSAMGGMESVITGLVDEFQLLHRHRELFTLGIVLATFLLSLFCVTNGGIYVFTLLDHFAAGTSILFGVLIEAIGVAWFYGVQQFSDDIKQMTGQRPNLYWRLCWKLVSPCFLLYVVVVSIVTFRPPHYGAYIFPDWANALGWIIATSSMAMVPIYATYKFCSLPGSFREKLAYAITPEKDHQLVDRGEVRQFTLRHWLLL

rats = conditions: drug discrimination, cited from earlier work
[3] = ref Oberlender and Nichols, 1991

Sequence of 5-HT1E (P28566 whole entry): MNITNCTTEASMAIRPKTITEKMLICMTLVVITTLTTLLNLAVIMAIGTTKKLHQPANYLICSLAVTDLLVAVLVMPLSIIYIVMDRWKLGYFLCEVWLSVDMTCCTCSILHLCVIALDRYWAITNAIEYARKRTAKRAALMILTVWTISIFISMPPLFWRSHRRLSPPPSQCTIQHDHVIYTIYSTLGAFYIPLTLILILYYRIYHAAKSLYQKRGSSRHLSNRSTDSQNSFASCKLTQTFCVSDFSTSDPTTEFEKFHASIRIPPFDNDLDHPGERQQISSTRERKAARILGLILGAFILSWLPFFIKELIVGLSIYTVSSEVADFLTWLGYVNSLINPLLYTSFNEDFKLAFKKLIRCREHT
Sequence of 5-HT5A (P47898 whole entry): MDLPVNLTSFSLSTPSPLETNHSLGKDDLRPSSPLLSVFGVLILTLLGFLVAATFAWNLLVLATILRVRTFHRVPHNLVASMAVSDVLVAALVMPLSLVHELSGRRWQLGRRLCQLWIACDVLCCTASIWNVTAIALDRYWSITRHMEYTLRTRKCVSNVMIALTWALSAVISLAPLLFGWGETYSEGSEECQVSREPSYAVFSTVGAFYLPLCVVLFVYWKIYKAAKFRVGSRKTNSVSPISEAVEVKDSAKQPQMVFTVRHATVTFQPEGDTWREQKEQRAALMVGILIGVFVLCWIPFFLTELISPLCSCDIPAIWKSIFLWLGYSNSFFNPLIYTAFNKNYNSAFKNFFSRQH

Row | SMILES | Ki (5-HT1E) [µM] | Ki (5-HT5A) [µM] | EC50 (SERT) [µM] | Emax (SERT) [%] | Ki (β3) [µM] | Ki (D5) [µM] | Emax (NET [1]) [%] | Ki (α2B) [µM] | Ki (D3) [µM] | Ki (α1B) [µM] | Ki (5-HT1D) [µM] | Ki (5-HT2A) [µM] | Ki (NET [2]) [µM] | Ki (D4) [µM] | Ki (5-HT1A) [µM] | EC50 (DAT) [µM] | DAT/NET ratio (DAT) | DAT/SERT ratio (DAT) | Emax (DAT) [%] | fold lower release potency at DAT (DAT) [fold] | other results
1 | COc1ccc2c(c1)CC(N)C2 (stereo not drawn) [5-MeO-AI, 5-methoxy-2-aminoindan] | > 10 | > 10 | 0.134 ± 0.013 | 104 | > 10 | > 10 | 101 | 1.55 | > 10 | > 10 | > 10 | > 10 | > 10 | > 10 | 2.5 | 2.65 | 0.33 | 0.05 | 117 | 20 | fold lower affinity for α2B compared to 2-AI (α2B): 5 fold
2 | COc1cc2c(cc1C)CC(N)C2 (stereo not drawn) [MMAI, 5-methoxy-6-methyl-2-aminoindan] | > 10 | > 10 | 0.031 ± 0.005 | 99 | > 10 | > 10 | 105 | 1.23 | > 10 | > 10 | 2.56 | > 10 | > 10 | > 10 | 1.08 | > 10 | >0.31 | > 0.003 |  | 100 | fold lower affinity for α2B compared to 2-AI (α2B): 5 fold; substitution in (+)-amphetamine-trained rats (rats; ref Johnson et al. 1991b): did not substitute; substitution in rats trained to discriminate MDMA and S-(+)-MBDB (rats; ref Johnson et al. 1991b): fully substituted
3 | NC1Cc2ccccc2C1 [2-AI, 2-aminoindan] | > 10 | > 10 | > 10 |  | > 10 | > 10 | 95 | 0.211 ± 0.081 | > 10 | > 10 | > 10 | > 10 | > 10 | > 10 | > 10 | 0.439 ± 0.038 | 0.20 | >22.78 | 106 |  | substitution for (+)-amphetamine (rats; ref Glennon et al. 1984): fully substituted; substitution in (+)-amphetamine-trained rats (rats; [3]): partial substitution
4 | NC1Cc2cc3c(cc2C1)OCO3 [MDAI, 5,6-methylenedioxy-2-aminoindan] | > 10 | > 10 | 0.114 ± 0.015 | 102 | > 10 | > 10 | 99 | 1.12 | > 10 | > 10 | > 10 | > 10 | > 10 | > 10 | > 10 | 1.33 | 0.09 | 0.08 | 113 | 10 | drug-appropriate responding in (+)-methamphetamine-trained rats (rats; ref Gatch et al. 2016): 75%; substitution in cocaine-trained rats (rats; ref Gatch et al. 2016): full substitution; substitution for MDMA and S-(+)-MBDB (rats; ref Nichols et al. 1990, Oberlender and Nichols 1990, Malmusi et al. 1996, Gatch et al. 2016): substituted; substitution in (+)-amphetamine-trained rats (rats; [3]): did not substitute
